We go through 16 molecules from patent US12466827B2, “1,3,4-oxadiazole derivative compounds as histone deacetylase 6 inhibitor, and the pharmaceutical composition comprising the same” (CHONG KUN DANG PHARMACEUTICAL CORP., priority 2020, dated 2025).

Where only a bound is given, the exact number is not on record here.

The term IC50 denotes the point on the concentration scale where inhibition reaches its midpoint.

The target in one test is T1, human recombinant HDAC1 (Homo sapiens, UniProt Q13547).
T1 construct: purchased Enzo Life Sciences, Inc. BML-SE456
The experiment in a line: In vitro HDAC enzyme activity inhibition assay (HDAC1). Conditions: Fluor de Lys-SIRT1 substrate 10 μM, 30° C., 60 minutes, fluorescence. The class given is biochemical. On the procedure:
(§1) In order to confirm the selectivity of the compounds represented by Chemical Formula I of the present invention to HDAC6 through HDAC1 and HDAC6 enzyme activity inhibition experiments, a comparison experiment was performed using the material that has already been developed as a control group.
(§2) HDAC enzyme activity was measured using the HDAC Fluorimetric Drug Discovery Kit (Enzo Life Sciences, Inc., BML-AK511, 516). For the HDAC1 enzyme activity test, human recombinant HDAC1 (BML-SE456) was used as an enzyme source and Fluor de Lys-SIRT1 (BNL-KI177) was used as a substrate. After dispensing 5-fold diluted compounds into a 96-well plate, 0.3 μg of enzyme and 10 μM substrate were added to each well of the plate and allowed to react at 30° C. for 60 minutes. Next, Fluor de Lys Developer II (BML-KI176) was added and reacted for 30 minutes to complete the reaction, and then the fluorescence values (Ex 360, Em 460) were measured using a multi-plate reader (Flexstation 3, Molecular Device). The HDAC6 enzymes were tested using human recombinant HDAC6 (382180) from Calbiochem Inc., according to the same protocol as the HDAC1 enzyme activity test method. With respect to the final result values, respective IC50 values were calculated using GraphPad Prism 4.0 program, and results thereof were summarized in Table 4 below.

Another test deals with T2, human recombinant HDAC6 (Homo sapiens, UniProt Q9UBN7).
T2 construct: purchased Calbiochem Inc. 382180
T2 sequence (Q9UBN7 1-1215): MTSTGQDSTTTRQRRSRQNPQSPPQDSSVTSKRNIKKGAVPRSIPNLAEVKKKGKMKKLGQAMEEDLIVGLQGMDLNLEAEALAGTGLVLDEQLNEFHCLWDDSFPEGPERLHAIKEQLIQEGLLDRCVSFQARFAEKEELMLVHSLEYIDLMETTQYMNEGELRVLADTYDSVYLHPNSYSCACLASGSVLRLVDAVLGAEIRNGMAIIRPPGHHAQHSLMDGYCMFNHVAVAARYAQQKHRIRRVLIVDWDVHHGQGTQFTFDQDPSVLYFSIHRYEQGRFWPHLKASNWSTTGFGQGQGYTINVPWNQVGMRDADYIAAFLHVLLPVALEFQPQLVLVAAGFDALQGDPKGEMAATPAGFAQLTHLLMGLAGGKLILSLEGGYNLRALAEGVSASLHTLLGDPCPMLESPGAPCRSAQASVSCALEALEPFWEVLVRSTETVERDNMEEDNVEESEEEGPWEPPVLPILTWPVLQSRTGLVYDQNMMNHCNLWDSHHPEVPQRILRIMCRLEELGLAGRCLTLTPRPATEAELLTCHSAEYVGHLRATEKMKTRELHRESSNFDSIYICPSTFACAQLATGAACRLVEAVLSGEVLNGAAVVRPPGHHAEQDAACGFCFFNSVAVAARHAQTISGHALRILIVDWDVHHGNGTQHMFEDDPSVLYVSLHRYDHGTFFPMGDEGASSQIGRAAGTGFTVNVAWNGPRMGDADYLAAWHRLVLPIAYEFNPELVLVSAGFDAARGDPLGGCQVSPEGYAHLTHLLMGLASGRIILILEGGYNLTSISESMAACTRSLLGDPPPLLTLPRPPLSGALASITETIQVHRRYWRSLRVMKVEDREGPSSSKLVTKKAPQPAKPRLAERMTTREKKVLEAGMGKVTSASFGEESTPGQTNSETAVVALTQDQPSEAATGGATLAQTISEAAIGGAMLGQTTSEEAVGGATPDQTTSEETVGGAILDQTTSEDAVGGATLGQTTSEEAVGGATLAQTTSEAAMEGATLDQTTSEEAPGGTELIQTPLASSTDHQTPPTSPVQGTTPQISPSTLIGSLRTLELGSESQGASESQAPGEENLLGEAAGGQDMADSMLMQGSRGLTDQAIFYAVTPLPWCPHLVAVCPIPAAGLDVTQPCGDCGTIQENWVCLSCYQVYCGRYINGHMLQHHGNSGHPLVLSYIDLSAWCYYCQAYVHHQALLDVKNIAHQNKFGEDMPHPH
The experiment in a line: In vitro HDAC enzyme activity inhibition assay (HDAC6). The format is biochemical. The following applies: for HDAC6 selectivity (fold): HDAC6 over HDAC1; for IC50: same protocol as the HDAC1 test, human recombinant HDAC6 (Calbiochem). On the procedure:
as §1, §2

T1 sequence (Q13547 whole entry): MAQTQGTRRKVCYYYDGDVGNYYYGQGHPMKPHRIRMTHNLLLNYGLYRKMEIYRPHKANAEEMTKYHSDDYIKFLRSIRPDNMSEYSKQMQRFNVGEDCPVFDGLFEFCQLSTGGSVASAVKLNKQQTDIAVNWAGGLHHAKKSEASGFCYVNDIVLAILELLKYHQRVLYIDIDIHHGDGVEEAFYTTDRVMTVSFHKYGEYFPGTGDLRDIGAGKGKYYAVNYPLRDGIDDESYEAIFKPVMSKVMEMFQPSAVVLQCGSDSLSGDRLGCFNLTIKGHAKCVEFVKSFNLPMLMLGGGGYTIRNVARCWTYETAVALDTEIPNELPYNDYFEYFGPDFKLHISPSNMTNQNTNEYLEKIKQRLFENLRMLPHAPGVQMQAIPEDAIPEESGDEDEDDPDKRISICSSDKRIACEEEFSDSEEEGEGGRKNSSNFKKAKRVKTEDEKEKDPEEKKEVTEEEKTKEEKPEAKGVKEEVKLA

`O=C(N1CCC(S(=O)(=O)N(Cc2cn3ccc(-c4nnc(C(F)F)o4)cc3n2)c2cccc(F)c2)CC1)C(F)(F)F` [Compound 4250, N-((7-(5-(difluoromethyl)-1,3,4-oxadiazol-2-yl)imidazo[1,2-a]pyridin-2-yl)methyl)-N-(3-fluorophenyl)-1-(2,2,2-trifluoroacetyl)piperidine-4-sulfonamide]: the figures for the IC50 at human recombinant HDAC1 and at human recombinant HDAC6 were greater than 50 µM and 0.116 µM, respectively. On human recombinant HDAC6, the “HDAC6 selectivity (fold)” value turned out to be 431 fold.

Consider `CS(=O)(=O)N1CCC(S(=O)(=O)N(Cc2cn3ccc(-c4nnc(C(F)F)o4)cc3n2)c2cccc(F)c2)CC1` [Compound 4251, N-((7-(5-(difluoromethyl)-1,3,4-oxadiazol-2-yl)imidazo[1,2-a]pyridin-2-yl)methyl)-N-(3-fluorophenyl)-1-(methylsulfonyl)piperidine-4-sulfonamide], for which the values for the IC50 at human recombinant HDAC1 and on human recombinant HDAC6 were greater than 50 µM and 0.0952 µM, respectively. The “HDAC6 selectivity (fold)” value on human recombinant HDAC6 worked out at 525 fold.

With `COC(=O)N1CCC(S(=O)(=O)N(Cc2cn3ccc(-c4nnc(C(F)F)o4)cc3n2)c2cccc(F)c2)CC1` [Compound 4252, methyl 4-(N-((7-(5-(difluoromethyl)-1,3,4-oxadiazol-2-yl)imidazo[1,2-a]pyridin-2-yl)methyl)-N-(3-fluorophenyl)sulfamoyl)piperidine-1-carboxylate], the IC50 on human recombinant HDAC1 is greater than 50 µM. For the same molecule, on human recombinant HDAC6, the “HDAC6 selectivity (fold)” value came to 455 fold and the IC50 came out at 0.11 µM.

Turning to `CN(C)C(=O)N1CCC(S(=O)(=O)N(Cc2cn3ccc(-c4nnc(C(F)F)o4)cc3n2)c2cccc(F)c2)CC1` [Compound 4253, 4—(N-((7-(5-(difluoromethyl)-1,3,4-oxadiazol-2-yl)imidazo[1,2-a]pyridin-2-yl)methyl)-N-(3-fluorophenyl)sulfamoyl)-N, N-dimethylpiperidine-1-carboxamide], the IC50 at human recombinant HDAC1 is greater than 50 µM. On human recombinant HDAC6, the “HDAC6 selectivity (fold)” value is given as 503 fold and the IC50 is 0.0994 µM.

For the molecule `O=S(=O)(C1CCN(c2ccccn2)CC1)N(Cc1cn2ccc(-c3nnc(C(F)F)o3)cc2n1)c1cccc(F)c1` [Compound 4254, N-((7-(5-(difluoromethyl)-1,3,4-oxadiazol-2-yl)imidazo[1,2-a]pyridin-2-yl)methyl)-N-(3-fluorophenyl)-1-(pyridin-2-yl)piperidine-4-sulfonamide], the IC50 on human recombinant HDAC1 was greater than 50 µM. Also, at human recombinant HDAC6, the “HDAC6 selectivity (fold)” value was 430 fold and the IC50 came out at 0.116 µM.

For the molecule `O=S(=O)(C1CCN(c2ncccn2)CC1)N(Cc1cn2ccc(-c3nnc(C(F)F)o3)cc2n1)c1cccc(F)c1` [Compound 4255, N-((7-(5-(difluoromethyl)-1,3,4-oxadiazol-2-yl)imidazo[1,2-a]pyridin-2-yl)methyl)-N-(3-fluorophenyl)-1-(pyrimidin-2-yl)piperidine-4-sulfonamide], the results for the IC50 at human recombinant HDAC1 and on human recombinant HDAC6 were greater than 50 µM and 0.108 µM, respectively. The “HDAC6 selectivity (fold)” value on human recombinant HDAC6 turned out to be 463 fold.

`CN1CCN(S(=O)(=O)N(Cc2cn3ccc(-c4nnc(C(F)F)o4)cc3n2)c2ccccc2)CC1` [Compound 4256, N-((7-(5-(difluoromethyl)-1,3,4-oxadiazol-2-yl)imidazo[1,2-a]pyridin-2-yl)methyl)-4-methyl-N-phenylpiperazine-1-sulfonamide]: the IC50 on human recombinant HDAC1 was greater than 50 µM. Moreover, at human recombinant HDAC6, the “HDAC6 selectivity (fold)” value was determined as 630 fold and the IC50 was 0.0794 µM.

Consider `CCN1CCN(S(=O)(=O)N(Cc2cn3ccc(-c4nnc(C(F)F)o4)cc3n2)c2ccccc2)CC1` [Compound 4257, N-((7-(5-(difluoromethyl)-1,3,4-oxadiazol-2-yl)imidazo[1,2-a]pyridin-2-yl)methyl)-4-ethyl-N-phenylpiperazine-1-sulfonamide], for which the IC50 on human recombinant HDAC1 is greater than 50 µM. At human recombinant HDAC6, the “HDAC6 selectivity (fold)” value is listed as 674 fold and the IC50 amounted to 0.0742 µM.

Turning to `CC(C)N1CCN(S(=O)(=O)N(Cc2cn3ccc(-c4nnc(C(F)F)o4)cc3n2)c2ccccc2)CC1` [Compound 4258, N-((7-(5-(difluoromethyl)-1,3,4-oxadiazol-2-yl)imidazo[1,2-a]pyridin-2-yl)methyl)-4-isopropyl-N-phenylpiperazine-1-sulfonamide], the IC50 on human recombinant HDAC1 was greater than 50 µM. Besides, at human recombinant HDAC6, the “HDAC6 selectivity (fold)” value came to 500 fold and the IC50 came out at 0.1 µM.

Consider `CC(CO)N1CCN(S(=O)(=O)N(Cc2cn3ccc(-c4nnc(C(F)F)o4)cc3n2)c2ccccc2)CC1` (stereo not drawn) [Compound 4259, N-((7-(5-(difluoromethyl)-1,3,4-oxadiazol-2-yl)imidazo[1,2-a]pyridin-2-yl)methyl)-4-(1-hydroxypropan-2-yl)-N-phenylpiperazine-1-sulfonamide], for which the IC50 on human recombinant HDAC1 was greater than 50 µM; at human recombinant HDAC6, 0.0826 µM. Moreover, the “HDAC6 selectivity (fold)” value on human recombinant HDAC6 stood at 605 fold.

For the molecule `O=S(=O)(N1CCN(C2CCC2)CC1)N(Cc1cn2ccc(-c3nnc(C(F)F)o3)cc2n1)c1ccccc1` [Compound 4260, 4-cyclobutyl-N-((7-(5-(difluoromethyl)-1,3,4-oxadiazol-2-yl)imidazo[1,2-a]pyridin-2-yl)methyl)-N-phenylpiperazine-1-sulfonamide], the IC50 at human recombinant HDAC1 is greater than 50 µM. Besides, at human recombinant HDAC6, the “HDAC6 selectivity (fold)” value is reported as 573 fold and the IC50 was found to be 0.0873 µM.

Regarding `O=S(=O)(N1CCN(C2COC2)CC1)N(Cc1cn2ccc(-c3nnc(C(F)F)o3)cc2n1)c1ccccc1` [Compound 4261, N-((7-(5-(difluoromethyl)-1,3,4-oxadiazol-2-yl)imidazo[1,2-a]pyridin-2-yl)methyl)-4-(oxetan-3-yl)-N-phenylpiperazine-1-sulfonamide], at human recombinant HDAC1, the IC50 was greater than 50 µM. In addition, at human recombinant HDAC6, the “HDAC6 selectivity (fold)” value was determined as 588 fold and the IC50 worked out at 0.085 µM.

`O=S(=O)(N1CCN(C2CCCCC2)CC1)N(Cc1cn2ccc(-c3nnc(C(F)F)o3)cc2n1)c1ccccc1` [Compound 4262, 4-cyclohexyl-N-((7-(5-(difluoromethyl)-1,3,4-oxadiazol-2-yl)imidazo[1,2-a]pyridin-2-yl)methyl)-N-phenylpiperazine-1-sulfonamide]: the IC50 at human recombinant HDAC1 is greater than 50 µM. Further, at human recombinant HDAC6, the “HDAC6 selectivity (fold)” value is 167 fold and the IC50 came out at 0.299 µM.

In the case of `O=S(=O)(N1CCN(C2CCOCC2)CC1)N(Cc1cn2ccc(-c3nnc(C(F)F)o3)cc2n1)c1ccccc1` [Compound 4263, N-((7-(5-(difluoromethyl)-1,3,4-oxadiazol-2-yl)imidazo[1,2-a]pyridin-2-yl)methyl)-N-phenyl-1-(tetrahydro-2H-pyran-4-yl)piperazine-1-sulfonamide], the IC50 at human recombinant HDAC1 was greater than 50 µM. At human recombinant HDAC6, the “HDAC6 selectivity (fold)” value is 397 fold and the IC50 came out at 0.126 µM.

Turning to `O=S(=O)(N1CCN(C2CCC(F)(F)CC2)CC1)N(Cc1cn2ccc(-c3nnc(C(F)F)o3)cc2n1)c1ccccc1` [Compound 4264], the IC50 on human recombinant HDAC1 is greater than 50 µM. Moreover, at human recombinant HDAC6, the “HDAC6 selectivity (fold)” value was 246 fold and the IC50 came out at 0.203 µM.

Regarding `CC(=O)N1CCN(S(=O)(=O)N(Cc2cn3ccc(-c4nnc(C(F)F)o4)cc3n2)c2ccccc2)CC1` [Compound 4265, 4-acetyl-N-((7-(5-(difluoromethyl)-1,3,4-oxadiazol-2-yl)imidazo[1,2-a]pyridin-2-yl)methyl)-N-phenylpiperazine-1-sulfonamide], on human recombinant HDAC1, the IC50 was greater than 50 µM. Moreover, on human recombinant HDAC6, the “HDAC6 selectivity (fold)” value turned out to be 585 fold and the IC50 is 0.0855 µM.
